Patent US20250382344A1, “Soluble GLP1/GIP/NPY2 Receptor Triple Agonists” (Boehringer Ingelheim International GmH, priority 2024, published 2025)
Where two headings read alike, the source gives them in different places.

What was measured:
[1] = Mouse PK after intravenous application; type: in vivo; details: plasma, male NMRI mice, intravenous 30-60 nmol/kg, non-compartmental analysis
Summary of the method: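 Male NMRI mice (30–40 g) dosed 30-60 nmol/kg by tail vein in 50 mM phosphate buffer pH 7.4/3.5% mannitol. Saphenous EDTA blood sampled from conscious animals up to 56 h; plasma peptide quantified by LC-MS. Parameters from non-compartmental analysis of individual profiles.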

hGLP1R = target: T1, hGLP1R (Homo sapiens, UniProt P43220); test: hGLP1R CreLuc assay in 0.5% and 100% plasma (HEK-293 CRE-luciferase reporter cells); type: cell-based; details: HEK-293 reporter cells
T1 construct: expressed in transfected cells; host or cells: HEK-293 CRE-luciferase reporter cells

hGIPR = target: T2, hGIPR (Homo sapiens, UniProt P48546); test: hGIPR CreLuc assay in 0.5% and 100% plasma (CHO CRE-luciferase reporter cells); type: cell-based
T2 construct: expressed in transfected cells; host or cells: CHO CRE-luciferase reporter cells
T2 sequence (P48546 22-466): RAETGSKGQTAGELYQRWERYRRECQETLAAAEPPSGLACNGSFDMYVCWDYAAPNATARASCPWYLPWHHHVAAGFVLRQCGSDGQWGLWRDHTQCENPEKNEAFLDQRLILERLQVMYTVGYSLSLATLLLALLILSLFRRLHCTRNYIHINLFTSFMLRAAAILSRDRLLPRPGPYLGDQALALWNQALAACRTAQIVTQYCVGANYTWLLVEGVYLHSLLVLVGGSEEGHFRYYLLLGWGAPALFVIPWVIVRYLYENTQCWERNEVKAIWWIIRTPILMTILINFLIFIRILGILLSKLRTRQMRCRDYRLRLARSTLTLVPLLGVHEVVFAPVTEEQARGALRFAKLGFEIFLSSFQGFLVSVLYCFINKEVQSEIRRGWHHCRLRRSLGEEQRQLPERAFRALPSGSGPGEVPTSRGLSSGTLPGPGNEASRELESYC

Normal NMRI Mice = test: Effect on acute food intake in normal NMRI mice; type: in vivo; details: male NMRI mice, single subcutaneous dose 100 nmol/kg, 24 hours food intake normalized to vehicle group
Procedure: Male NMRI mice were obtained from Janvier (Janvier Labs, France) or from Charles River (Charles River Research Models & Services Germany GmbH) at the age of 3 weeks. The animals get a microchip (Datamars, Slim Microchip T-SL) for individual identification after delivery. They were housed with 4 mice per cage under a 12/12 dark-light cycle, light off at 3 p.m. Room temperature was controlled to 21° C.+/−1° C. and humidity 60%+/−20%. Mice had ad libitum access to regular rodent chow (KLIBA Nafag 3040 or Altromin 1324, Brogaarden, Denmark) and tap water.
Latest transfer into the HM2-System of MBRose, Denmark (real-time monitoring system of food- and water intake) of the animals 5 days before study start, to allow acclimatization to experimental conditions. As the animals were uniquely identified with the microchips, each individual animal was identified by its own microchip upon entry and exit from the food channel via antennae. Randomization of the mice for each study group (n=8; age earliest 6 weeks old) was based on food intake (middle of last three days 24 h-interval) and bodyweight directly before start of the study. A vehicle treated (50 mM phosphate buffer pH 7.4 with 3.5% mannitol) group was included in each experiment. To have the same nutrition standard for each animal the food access was locked eight hours before dark phase. One hour before night, the animals were once treated subcutaneously with the test peptide. Food intake was reported hourly for a period of 24 hours.

[2] = Solubility in 0.1 M phosphate buffer at pH 7; type: physicochemical; details: 0.1 M phosphate buffer at pH 7, 10 mg/mL final peptide concentration, shaking 2 hours at room temperature, peptides as TFA-salts; measured sample pH 6.5-7.0
[3] = 0.5% human plasma, read-out: hGLP1R 0.5% hP
[4] = 100% human plasma, read-out: hGLP1R 100% hP
[5] = 0.5% human plasma, read-out: hGIPR 0.5% hP

T1 sequence (P43220 24-463): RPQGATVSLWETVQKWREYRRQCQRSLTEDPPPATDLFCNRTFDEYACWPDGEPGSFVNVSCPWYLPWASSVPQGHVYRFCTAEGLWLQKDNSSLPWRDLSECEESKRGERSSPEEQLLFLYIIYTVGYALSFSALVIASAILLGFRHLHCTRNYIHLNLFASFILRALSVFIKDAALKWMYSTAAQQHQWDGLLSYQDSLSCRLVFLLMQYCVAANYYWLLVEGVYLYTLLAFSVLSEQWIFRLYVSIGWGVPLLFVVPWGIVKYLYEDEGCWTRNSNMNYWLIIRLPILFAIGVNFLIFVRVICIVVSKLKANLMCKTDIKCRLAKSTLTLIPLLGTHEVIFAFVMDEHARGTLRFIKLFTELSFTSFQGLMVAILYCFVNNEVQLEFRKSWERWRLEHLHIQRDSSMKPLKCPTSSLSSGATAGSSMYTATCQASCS

For `CC[C@H](C)[C@H](NC(=O)[C@H](CC(C)C)NC(=O)[C@H](Cc1c[nH]cn1)NC(=O)[C@H](CCCNC(=N)N)NC(=O)[C@@H](NC(=O)[C@H](Cc1ccccc1)NC(=O)[C@H](C)NC(=O)C(C)(C)NC(=O)[C@H](CCC(N)=O)NC(=O)[C@H](C)NC(=O)[C@H](CCC(N)=O)NC(=O)[C@H](CCCCN)NC(=O)[C@H](CCC(=O)O)NC(=O)[C@H](CC(C)C)NC(=O)C(C)(C)NC(=O)[C@@H](NC(=O)[C@H](CO)NC(=O)[C@H](Cc1ccc(O)cc1)NC(=O)[C@H](CC(=O)O)NC(=O)[C@H](CO)NC(=O)[C@@H](NC(=O)[C@H](Cc1ccccc1)NC(=O)[C@@H](NC(=O)CNC(=O)[C@H](CCC(=O)O)NC(=O)C(C)(C)NC(=O)[C@@H](N)Cc1ccc(O)cc1)[C@@H](C)O)[C@@H](C)O)[C@@H](C)CC)C(C)C)C(=O)N[C@@H](CC(N)=O)C(=O)N[C@@H](CCCCNC(=O)CC[C@H](NC(=O)CC[C@H](NC(=O)CC[C@H](NC(=O)CC[C@H](NC(=O)CC[C@H](NC(=O)CC[C@H](NC(=O)CCCCCCCCCCCCCCCCCCC(=O)O)C(=O)O)C(=O)O)C(=O)O)C(=O)O)C(=O)O)C(=O)O)C(=O)NC(C)(C)C(=O)N[C@H](C(=O)N[C@@H](CCCNC(=N)N)C(=O)N[C@@H](CCC(N)=O)C(=O)N[C@@H](CCCNC(=N)N)C(=O)N[C@@H](Cc1ccc(O)cc1)C(N)=O)[C@@H](C)O` [Compound 3, Y-Aib-E-G-T-F-T-S-D-Y-S-I-Aib-L-E-K-Q-A-Q-Aib-A-F-V-R-H-L-I-N-K(1,3)-Aib-T-R-Q-R-Y-NH2.C20DA-gGlu-gGlu-gGlu-gGlu-gGlu-gGlu(1,2)], which MRT [1] is on record?
The MRT was 17.2 h.

And the EC50 (hGLP1R; [3])?
Its EC50 is 3000 pM.

And the EC50 (hGLP1R; [4])?
The EC50 was 13900 pM.

What about the EC50 (hGIPR; [5]) of the same compound?
The EC50 was 0.7 nM.

What about the “Acute Food Intake 24 hours 100 nmol/kg [% CTL]” value (Normal NMRI Mice) of the same compound?
Its value is 74 % CTL.

And the solubility at 2 h [2]?
Its solubility at 2 h is 6900 µg/mL.

Which EC50 (hGIPR; hGIPR 0.5% hP (nM), 0.5% human plasma) does the source give for `CC[C@H](C)[C@H](NC(=O)[C@H](CC(C)C)NC(=O)[C@H](Cc1c[nH]cn1)NC(=O)[C@H](CCCNC(=N)N)NC(=O)[C@@H](NC(=O)[C@H](Cc1ccccc1)NC(=O)[C@H](C)NC(=O)C(C)(C)NC(=O)[C@H](CCC(N)=O)NC(=O)[C@H](C)NC(=O)[C@H](CCC(N)=O)NC(=O)[C@H](CCCCN)NC(=O)[C@H](CCC(=O)O)NC(=O)[C@H](CC(C)C)NC(=O)C(C)(C)NC(=O)[C@@H](NC(=O)[C@H](CO)NC(=O)[C@H](CC(C)C)NC(=O)[C@H](CC(=O)O)NC(=O)[C@H](CO)NC(=O)[C@@H](NC(=O)[C@H](Cc1ccccc1)NC(=O)[C@@H](NC(=O)CNC(=O)[C@H](CCC(=O)O)NC(=O)C(C)(C)NC(=O)[C@@H](N)Cc1ccc(O)cc1)[C@@H](C)O)[C@@H](C)O)[C@@H](C)CC)C(C)C)C(=O)N[C@@H](CC(N)=O)C(=O)N[C@@H](CCCCNC(=O)[C@@H](N)CCCCNC(=O)CC[C@H](NC(=O)CC[C@H](NC(=O)CC[C@H](NC(=O)CC[C@H](NC(=O)CC[C@H](NC(=O)CC[C@H](NC(=O)CCCCCCCCCCCCCCCCCCC(=O)O)C(=O)O)C(=O)O)C(=O)O)C(=O)O)C(=O)O)C(=O)O)C(=O)NC(C)(C)C(=O)N[C@H](C(=O)N[C@@H](CCCNC(=N)N)C(=O)N[C@@H](CCC(N)=O)C(=O)N[C@@H](CCCNC(=N)N)C(=O)N[C@@H](Cc1ccc(O)cc1)C(N)=O)[C@@H](C)O` [Compound 20, Y-Aib-E-G-T-F-T-S-D-L-S-I-Aib-L-E-K-Q-A-Q-Aib-A-F-V-R-H-L-I-N-K(1,3)-Aib-T-R-Q-R-Y-NH2.C20DA-gGlu-gGlu-gGlu-gGlu-gGlu-gGlu-eLys(1,2)] here?
Its EC50 is 0.4 nM.

What about the EC50 (hGIPR; hGIPR 100% hP (nM), 100% human plasma) of the same compound?
Its EC50 is 6.9 nM.

What about the “Acute Food Intake 24 hours 100 nmol/kg [% CTL]” value (Normal NMRI Mice) of the same compound?
Its value is 79 % CTL.

What about the solubility at 2 h [2] of the same compound?
Its solubility at 2 h is 8500 µg/mL.

For `CC[C@H](C)[C@H](NC(=O)[C@H](CC(C)C)NC(=O)[C@H](Cc1c[nH]cn1)NC(=O)[C@H](CCCNC(=N)N)NC(=O)[C@@H](NC(=O)[C@H](Cc1ccccc1)NC(=O)[C@H](C)NC(=O)C(C)(C)NC(=O)[C@H](CCC(N)=O)NC(=O)[C@H](C)NC(=O)[C@H](CCC(N)=O)NC(=O)[C@H](CCCCN)NC(=O)[C@H](CCC(=O)O)NC(=O)[C@H](CC(C)C)NC(=O)[C@](C)(CC(C)C)NC(=O)[C@@H](NC(=O)[C@H](CO)NC(=O)[C@H](Cc1ccc(O)cc1)NC(=O)[C@H](CC(=O)O)NC(=O)[C@H](CO)NC(=O)[C@@H](NC(=O)[C@H](Cc1ccccc1)NC(=O)[C@@H](NC(=O)CNC(=O)[C@H](CCC(=O)O)NC(=O)C(C)(C)NC(=O)[C@@H](N)Cc1ccc(O)cc1)[C@@H](C)O)[C@@H](C)O)[C@@H](C)CC)C(C)C)C(=O)N[C@@H](CC(N)=O)C(=O)N[C@@H](CCCCNC(=O)[C@@H](N)CCCCNC(=O)CC[C@H](NC(=O)CC[C@H](NC(=O)CC[C@H](NC(=O)CC[C@H](NC(=O)CC[C@H](NC(=O)CC[C@H](NC(=O)CC[C@H](NC(=O)CCCCCCCCCCCCCCCCCCC(=O)O)C(=O)O)C(=O)O)C(=O)O)C(=O)O)C(=O)O)C(=O)O)C(=O)O)C(=O)NC(C)(C)C(=O)N[C@H](C(=O)N[C@@H](CCCNC(=N)N)C(=O)N[C@@H](CCC(N)=O)C(=O)N[C@@H](CCCNC(=N)N)C(=O)N[C@@H](Cc1ccc(O)cc1)C(N)=O)[C@@H](C)O` [Compound 78, Y-Aib-E-G-T-F-T-S-D-Y-S-I-aMeL-L-E-K-Q-A-Q-Aib-A-F-V-R-H-L-I-N-K(1,3)-Aib-T-R-Q-R-Y-NH2.C20DA-gGlu-gGlu-gGlu-gGlu-gGlu-gGlu-gGlu-eLys(1,2)], which EC50 (hGLP1R; [3]) is on record?
The EC50 was 200 pM.

What about the EC50 (hGIPR; [5]) of the same compound?
Its EC50 is 0.1 nM.

What about the “Acute Food Intake 24 hours 100 nmol/kg [% CTL]” value (Normal NMRI Mice) of the same compound?
The value was 65 % CTL.

And the solubility at 2 h [2]?
The solubility at 2 h was 10300 µg/mL.

Which EC50 (hGLP1R; [3]) does the source give for `CC[C@H](C)[C@H](NC(=O)[C@H](Cc1ccccc1)NC(=O)[C@H](C)NC(=O)C(C)(C)NC(=O)[C@H](CCC(N)=O)NC(=O)[C@H](C)NC(=O)[C@H](CCC(N)=O)NC(=O)[C@H](CCCCN)NC(=O)[C@H](CCC(=O)O)NC(=O)[C@H](CC(C)C)NC(=O)C(C)(C)NC(=O)[C@@H](NC(=O)[C@H](CO)NC(=O)[C@H](Cc1ccc(O)cc1)NC(=O)[C@H](CC(=O)O)NC(=O)[C@H](CO)NC(=O)[C@@H](NC(=O)[C@H](Cc1ccccc1)NC(=O)[C@@H](NC(=O)CNC(=O)[C@H](CCC(=O)O)NC(=O)C(C)(C)NC(=O)[C@@H](N)Cc1ccc(O)cc1)[C@@H](C)O)[C@@H](C)O)[C@@H](C)CC)C(=O)N[C@@H](CCCNC(=N)N)C(=O)N[C@@H](Cc1c[nH]cn1)C(=O)N[C@@H](CC(C)C)C(=O)N[C@H](C(=O)N[C@@H](CC(N)=O)C(=O)N[C@@H](CCCCNC(=O)[C@@H](N)CCCCNC(=O)CC[C@H](NC(=O)CC[C@H](NC(=O)CC[C@H](NC(=O)CC[C@H](NC(=O)CC[C@H](NC(=O)CC[C@H](NC(=O)CCCCCCCCCCCCCCCCC(=O)O)C(=O)O)C(=O)O)C(=O)O)C(=O)O)C(=O)O)C(=O)O)C(=O)NC(C)(C)C(=O)N[C@H](C(=O)N[C@@H](CCCNC(=N)N)C(=O)N[C@@H](CCC(N)=O)C(=O)N[C@@H](CCCNC(=N)N)C(=O)N[C@@H](Cc1ccc(O)cc1)C(N)=O)[C@@H](C)O)[C@@H](C)CC` [Compound 88, Y-Aib-E-G-T-F-T-S-D-Y-S-I-Aib-L-E-K-Q-A-Q-Aib-A-F-I-R-H-L-I-N-K(1,3)-Aib-T-R-Q-R-Y-NH2.C18DA-gGlu-gGlu-gGlu-gGlu-gGlu-gGlu-eLys(1,2)] here?
The EC50 was 200 pM.

What about the EC50 (hGLP1R; [4]) of the same compound?
Its EC50 is 1800 pM.

What about the EC50 (hGIPR; [5]) of the same compound?
Its EC50 is 0.1 nM.

And the EC50 (hGIPR; 100% human plasma, read-out: hGIPR 100% hP)?
Its EC50 is 1.7 nM.

What about the “Acute Food Intake 24 hours 100 nmol/kg [% CTL]” value (Normal NMRI Mice) of the same compound?
The value was 47 % CTL.

And the solubility at 2 h [2]?
Its solubility at 2 h is 10400 µg/mL.
